From patent US20090104177A1, “PEPTIDES FOR INHIBITING THE INTERACTION OF PROTEIN KINASE A AND PROTEIN KINASE A ANCHOR PROTEINS” (FORSCHUNGSVERBUND BERLIN E.V., priority 2004, published 2009)
Entries after “also recorded” stand apart in the source; their conditions may differ. No end group written: not given here.

What was measured:
[1] = biological target: T1, regulatory RIIα subunits of PKA (Homo sapiens, UniProt P13861); test: RII overlay of membrane-bound (SPOT) peptides, radiolabelled RIIα as probe, densitometry; format: binding; conditions: human RIIα as probe; in words
T1 construct: Prof; Dr. Friedrich W. Herberg, University of Kassel, Germany (obtained from an academic laboratory, not a vendor)
Description: (§1) Peptide libraries were synthesized by means of automatic SPOT synthesis on Whatman 50 cellulose membranes according to standard protocols using Fmoc chemistry and AutoSpot Robot ATE 222 (Intavis Bioanalytical Instruments AG, Cologne). The protective groups of the amino acid side chains were removed using a mixture of trifluoroacetic acid (TFA) in dichloromethane (DCM) (Frank, 1992; Kramer and Schneider-Mergener, 1998). For control, spots (about 50 nmol of peptide per spot) were cut from the cellulose membrane, removed from the membrane by treatment with 0.05 M NaOH, and analyzed using HPLC and MALDI-TOF mass spectrometry.
(§2) • 1. Regulatory RIIα (human) and RIIβ (rat) subunits of PKA, obtained from Prof. Dr. Friedrich W. Herberg, University of Kassel, Germany. • 2. Catalytic subunits of PKA, Promega, Mannheim, Germany, Order No. V5161 • 3. [γ-^32P]ATP, 5000 Ci/mmol, Amersham Biosciences, Brunswick, Germany, Order No. AA0018 • 4. Sephadex G 50, medium Pharmacia, Order No. 17-0043-01 • 5. Phosphate-buffered saline (PBS)
(§3) The ATP concentration was adjusted to 10 μM by addition of non-radioactive ATP (addition of 5 μl of a 1 mM solution). The batch was incubated on ice for another 50 min.
(§4) The reaction was quenched by adding dextran blue and removing free nucleotides. The free ATP was removed on a Sephadex G50 column.
(§5) Non-incorporated nucleotides were separated from the RII subunits by fractionation on Sephadex G 50 columns. • 1. Swelling of the Sephadex G 50 material: 20 g thereof was allowed to swell in 400 ml of PBS at room temperature overnight. Non-settled material was subsequently removed with a Pasteur pipette. The swollen material was aliquoted in 50 ml Falcon tubes and stored at 4° C. For preservation, sodium azide was added to make a final concentration of 0.01%. • 2. The material was poured into a 10 ml sterile disposable pipette sealed with a glass sphere. To settle the column bed, 50 ml of PBS containing 1 mg/ml BSA (bovine serum albumin) was allowed to pass.
(§6) Until used, the column was sealed with parafilm at the top thereof. • 3. The labelled RII subunits (500 μl), together with dextran blue (70 μl of a 20 mg/ml solution), were applied on the column (overall volume=570 μl). • 4. The sample was allowed to migrate into the matrix, followed by filling up with PBS. • 5. A short time before the dextran blue was eluted, collection of fractions was begun (2 fractions of 1.5 ml each, the other fractions 1 ml each). • 6. To determine the incorporation of ^32P, 1% (5.7 μl) of sample upstream of the column (corresponding to 1% of the radioactivity employed) and 3 μl of each fraction were used. • 7. The fractions of the first peak including the probe were combined. The incorporation rate in % was calculated and the specific activity (cpm/μg of protein) was determined.
(§7) • 1. The proteins (40 μg) were separated by means of SDS-PAGE and transferred on a PVDF membrane (PVDF: polyvinylidene fluoride) using a semi-dry electroblotting procedure. The membrane-associated proteins were stained with Ponceau S in order to identify the marker proteins on the membrane. Destaining was effected using TBS. • 2. The membrane was incubated in Blotto/BSA at 4° C. for 16 hours:
(§8) • 3. Blotto/BSA was replaced with fresh one and ^32P-labelled RII subunits were added (10^5 cpm/ml). This was incubated for 4-6 h at room temperature. • 4. The membrane was washed for 4×15 min in Blotto/BSA and for 2×10 min in 10 mM potassium phosphate buffer, pH 7.4, 0.15 M NaCl. • 5. RII-binding proteins were detected by exposition on a phosphoimager plate.
(§9) Identification of AKAP18δ-derived peptides inhibiting the interaction of AKAP proteins with the regulatory RIIα and RIIβ subunits of PKA. A: Peptides derived from the PKA binding domain of AKAP18δ were synthesized on two membranes. The membranes were incubated with radiolabelled regulatory RIIα (upper row) or RIIβ subunits (row below) of the PKA (RII overlay experiment). […]

[2] = biological target: T2, regulatory RIIβ subunits of PKA (Rattus norvegicus, UniProt P12369); test: RII overlay of membrane-bound (SPOT) peptides, radiolabelled RIIβ as probe, densitometry; format: binding; conditions: in words
T2 construct: Prof; Dr. Friedrich W. Herberg, University of Kassel, Germany (obtained from an academic laboratory, not a vendor)
Description: as §1, §2, §3, §4, §5, §6, §7, §8, §9

[3] = biological target: RIIα subunits of the PKA (Homo sapiens, UniProt P13861); test: Summary statement on RIIα binding of AKAP18δ-derived peptides; conditions: in words
Description: We explain this by binding via hydrogen bridges (H bridges) between peptide and RII dimer (see Fig., hydrogen bridges represented by broken lines). Correspondingly, a common feature of the peptides is the minimum number (8) of amino acids forming H bridges.

[4] = biological target: human RIIα subunits (Homo sapiens, UniProt P13861); test: Surface plasmon resonance measurement of peptide binding to RIIα
[5] = biological target: RIIβ subunits from rats (Rattus norvegicus, UniProt P12369); test: Surface plasmon resonance measurement of peptide binding to RIIβ
[6] = biological target: murine RIIα subunit of PKA (Mus musculus, UniProt P12367); conditions: Alto et al. (2003); cited from earlier work
[7] = biological target: T3, regulatory RIIα subunit of PKA (human) (human, UniProt P13861 1-404, 32P-labelled with the catalytic subunit of PKA when used as probe in the RII overlay experiments); test: RII overlay on SPOT membrane, densitometry; reference AKAP18δ-wt
T3 construct: Radiolabelled probe in RII overlays; format in the surface plasmon resonance measurements is not described; also called human RIIα

[8] = biological target: T4, regulatory RIIβ subunit of PKA (rat) (rat, UniProt P12369 1-416, 32P-labelled with the catalytic subunit of PKA when used as probe in the RII overlay experiments); test: as above
T4 construct: Radiolabelled probe in RII overlays; format in the surface plasmon resonance measurements is not described; also called RIIβ subunit of PKA from rats

[9] = biological target: T3, regulatory RIIα subunit of PKA (human); test: RII overlay on SPOT membrane, densitometry; references AKAP18δ-L304T and AKAP18δ-L314E
[10] = biological target: T4, regulatory RIIβ subunit of PKA (rat); test: as above
[11] = biological target: T3, regulatory RIIα subunit of PKA (human); test: surface plasmon resonance
[12] = biological target: T4, regulatory RIIβ subunit of PKA (rat); test: surface plasmon resonance
[13] = biological target: T3, regulatory RIIα subunit of PKA (human); test: RII overlay: SPOT peptides on membrane, probe 32P-labelled RIIα, phosphoimager
[14] = biological target: T4, regulatory RIIβ subunit of PKA (rat); test: RII overlay: SPOT peptides on membrane, probe 32P-labelled RIIβ, phosphoimager
[15] = biological target: T3, regulatory RIIα subunit of PKA (human); test: RII overlay on SPOT membrane with radiolabelled RIIα
[16] = biological target: T4, regulatory RIIβ subunit of PKA (rat); test: RII overlay on SPOT membrane with radiolabelled RIIβ

T1 sequence (P13861 whole entry): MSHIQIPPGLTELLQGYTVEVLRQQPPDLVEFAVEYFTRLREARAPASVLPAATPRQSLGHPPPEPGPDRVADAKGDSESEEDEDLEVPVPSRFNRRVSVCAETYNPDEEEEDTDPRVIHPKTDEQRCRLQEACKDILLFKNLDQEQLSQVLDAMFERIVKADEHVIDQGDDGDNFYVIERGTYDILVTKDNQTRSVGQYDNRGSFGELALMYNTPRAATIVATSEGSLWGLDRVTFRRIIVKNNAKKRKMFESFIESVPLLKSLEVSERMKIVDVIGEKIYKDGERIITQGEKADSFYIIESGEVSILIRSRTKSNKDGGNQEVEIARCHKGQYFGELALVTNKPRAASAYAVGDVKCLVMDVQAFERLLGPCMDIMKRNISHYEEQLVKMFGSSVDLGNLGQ
T3 sequence (P13861 whole entry): as above
Chain of human RIIα subunits (P13861 whole entry): as above
Chain of RIIα subunits of the PKA (P13861 whole entry): as above
T4 sequence (P12369 whole entry): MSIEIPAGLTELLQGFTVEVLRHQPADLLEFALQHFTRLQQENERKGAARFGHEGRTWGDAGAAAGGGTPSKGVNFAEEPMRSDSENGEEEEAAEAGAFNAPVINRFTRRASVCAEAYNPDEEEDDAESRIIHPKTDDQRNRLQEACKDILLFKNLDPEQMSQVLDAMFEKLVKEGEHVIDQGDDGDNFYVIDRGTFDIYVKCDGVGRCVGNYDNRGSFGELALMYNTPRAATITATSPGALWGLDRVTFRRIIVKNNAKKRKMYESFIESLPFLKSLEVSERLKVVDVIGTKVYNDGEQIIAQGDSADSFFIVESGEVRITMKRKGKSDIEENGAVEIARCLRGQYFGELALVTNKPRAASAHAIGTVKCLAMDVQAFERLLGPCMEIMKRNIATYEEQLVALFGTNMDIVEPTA
Chain of RIIβ subunits from rats (P12369 whole entry): as above
T2 sequence (P12369 whole entry): as above
Chain of murine RIIα subunit of PKA (P12367 whole entry): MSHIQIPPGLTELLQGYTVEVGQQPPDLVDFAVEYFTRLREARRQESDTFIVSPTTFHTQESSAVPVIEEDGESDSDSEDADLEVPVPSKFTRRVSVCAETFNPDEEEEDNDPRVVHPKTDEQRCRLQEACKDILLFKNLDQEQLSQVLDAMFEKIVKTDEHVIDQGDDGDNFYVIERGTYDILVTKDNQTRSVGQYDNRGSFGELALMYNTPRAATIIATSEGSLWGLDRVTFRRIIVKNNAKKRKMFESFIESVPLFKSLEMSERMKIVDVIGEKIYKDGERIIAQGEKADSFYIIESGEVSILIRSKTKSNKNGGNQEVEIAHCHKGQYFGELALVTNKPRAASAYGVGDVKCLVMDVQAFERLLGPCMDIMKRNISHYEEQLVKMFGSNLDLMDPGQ

## CC(C)C[C@H](NC(=O)[C@H](CCCNC(=N)N)NC(=O)[C@@H](NC(=O)[C@H](CC(C)C)NC(=O)[C@H](CCC(=O)O)NC(=O)[C@H](C)NC(=O)[C@H](CC(=O)O)NC(=O)[C@H](CCC(=O)O)NC(=O)[C@@H]1CCCN1)C(C)C)C(=O)N[C@@H](CO)C(=O)N[C@@H](CCCCN)C(=O)N[C@@H](CCCNC(=N)N)C(=O)N[C@@H](CC(C)C)C(=O)N[C@H](C(=O)N[C@@H](CCC(=O)O)C(=O)N[C@@H](CC(N)=O)C(=O)N[C@@H](C)C(=O)N[C@H](C(=O)N[C@@H](CCC(=O)O)C(=O)N[C@@H](CCCCN)C(=O)N[C@@H](C)C(=O)N[C@H](C(=O)N[C@@H](CCC(N)=O)C(=O)N[C@@H](CCC(N)=O)C(=O)N[C@@H](Cc1ccc(O)cc1)C(=O)O)C(C)C)C(C)C)C(C)C [AKAP18δ-L314E]
[1]
  binding to RIIα subunits in RII overlay: stronger binding; also recorded: bind strongly
[2]
  binding to RIIβ subunits in RII overlay: stronger binding; also recorded: bind strongly
[3]
  RIIα binding compared with peptides derived from natural AKAPs: bind stronger than any other peptide derived from natural AKAPs

## AKAPIS [peptide developed by Alto et al. (2003); IS, in silico, reference compound]
[4]
  RIIα binding KD: no binding
[5]
  RIIβ binding KD: no binding
[1]
  binding to RIIα subunits in RII overlay: barely bind
[2]
  binding to RIIβ subunits in RII overlay: barely bind
[6]
  Kd: 0.45 nM
  affinity increased compared to the Ht31 peptide: 5 times

## EPEDAELVRLSKRLVENAVLKAVQQYLEETQ (listed as Homo sapiens) [AKAP18δ-RI]
[1]
  binding to RIIα subunits in RII overlay: weaker
[2]
  binding to RIIβ subunits in RII overlay: weaker
[3]
  RIIα binding compared with peptides derived from natural AKAPs: bind stronger than any other peptide derived from natural AKAPs

## Ht31 (peptide)
[7]
  fold weaker binding than AKAP18δ-wt: 5 fold
[8]
  fold weaker binding than AKAP18δ-wt: 5 fold
[9]
  fold weaker binding than AKAP18δ-L304T and AKAP18δ-L314E: 5 to 6 fold
[10]
  fold weaker binding than AKAP18δ-L304T and AKAP18δ-L314E: 5 to 6 fold

## KGADLIEEAASRIVDAVIEQVKAAG [Ht31, reference compound]
[4]
  Kd: 15 nM
[5]
  Kd: 35 nM
[6]
  Kd: 2.2 nM

## PEDAELVRTSKRLVENAVLKAVQQY [AKAP18δ-L304T]
[4]
  Kd: 0.3 to 0.9 nM
[5]
  Kd: 35 nM
[1]
  binding to RIIα subunits in RII overlay: stronger binding; also recorded: bind strongly
[2]
  binding to RIIβ subunits in RII overlay: stronger binding; also recorded: bind strongly
[3]
  RIIα binding compared with peptides derived from natural AKAPs: bind stronger than any other peptide derived from natural AKAPs

B1: AKAP18δ-P (peptide)
peptide: PEDAELVRLSKRLPENAVLKAVQQY
notes: Proline-substituted negative control; also called AKAP18delta-P; No. X
[11]
  binding result: no binding
[12]
  binding result: no binding

B2: AKAP18δ-PP (peptide)
peptide: PEDAELVRLSKRLPENAPLKAVQQY
notes: Double proline-substituted negative control; also called AKAP18delta-PP
[11]
  binding result: no binding
[12]
  binding result: no binding

## EPEDAELVRLSKRLVENAVLKAVQQYLEETQ (also called Akap18delta-RI; No. AA) [AKAP18δ-RI]
[13]
  binding result: binds
[14]
  binding result: binds

B3: A18δRIIαRn3 (10/12) (peptide)
peptide: ANDARLVRLPKRLVENAVLKAVQQY
notes: Member of the substitution library of peptide 7 (row 10, peptide 12); also called peptide 10/12; No. FF
[15]
  binding result: binds
[16]
  binding result: no binding

B4: A18δRIIβRn1 (21/4) (peptide)
peptide: ANDARLVRLSKRLVENAVLKFVQQY
notes: Member of the substitution library of peptide 7 (row 21, peptide 4); also called peptide 21/4; A18δRIIβRnl
[15]
  binding result: no binding
[16]
  binding result: binds
